ChEMBL document CHEMBL2321807, “Synthesis and in vitro biological evaluation of lipophilic cation conjugated photosensitizers for targeting mitochondria” (Bioorg Med Chem, 2013)
pIC50: −log10 of the molar value. Activity calls are given as the source filed them. No cut-off for these calls is given here.

Assays:
Colon 26 [1] = experiment: Phototoxicity against mouse Colon 26 cells up to 5 uM incubated for 24 hrs prior to irradiation measured after 30 mins by MTT assay; format: functional
Colon 26 [2] = experiment: Drug uptake in mouse Colon 26 cells assessed per cell at 5 uM after 24 hrs by fluorimetric analysis; format: ADME, cell-based; details: colon 26, 24 h
[3] = n-octanol-water distribution coefficient, log D of the compound at pH 7.4 by shake flask method; format: physicochemical
Colon 26 [4] = experiment: Dark toxicity against mouse Colon 26 cells up to 5 uM after 24 hrs by MTT assay; format: functional, cell-based
Colon 26 [5] = experiment: Drug uptake in mouse Colon 26 cells at 10 uM after 24 hrs by fluorimetric analysis relative to CMP-OH; format: ADME, cell-based; details: colon 26, 24 h
Colon 26 [6] = experiment: Drug uptake in mouse Colon 26 cells at 5 uM after 24 hrs by fluorimetric analysis relative to CMP-OH; format: ADME, cell-based; details: colon 26, 24 h
[7] = Drug uptake in human MCF7 cells mitochondria at 5 uM after 14 hrs by Rh-123-based dual fluorescence staining method; format: ADME, cell-based; details: mcf7, 14 h
Colon 26 [8] = experiment: Phototoxicity against mouse Colon 26 cells incubated for 24 hrs prior to irradiation measured after 30 mins by MTT assay; format: functional, cell-based; details: Colon 26, light or radiation study
Colon 26 [9] = experiment: Drug uptake in mouse Colon 26 cells at 5 to 10 uM after 24 hrs by fluorimetric analysis; format: ADME, cell-based; details: colon 26, 24 h
[10] = Drug uptake in human MCF7 cells cytoplasm at 5 uM after 14 hrs by Rh-123-based dual fluorescence staining method; format: ADME, cell-based; details: mcf7, 14 h

SMILES	Drug uptake (Colon 26 [2]) [fmol]	logD [3]	fold change (FC) (Colon 26 [5])	fold change (FC) (Colon 26 [6])	Drug uptake [7]	Drug uptake (Colon 26 [9])	Drug uptake [10]	Activity (Colon 26 [1])	Activity (Colon 26 [4])	pIC50 (Colon 26 [8])
CCN(CC)c1ccc2c(-c3ccccc3C(C)=O)c3ccc(=[N+](CC)CC)cc-3oc2c1								inactive	inactive	
CCN(CC)c1ccc2c(-c3ccccc3C(=O)O)c3ccc(=[N+](CC)CC)cc-3oc2c1 [RHODAMINE B]		2.07								
C1=Cc2nc1c(-c1ccccc1)c1ccc(s1)c(-c1ccccc1)c1nc(c(-c3ccc(OCCC[P+](c4ccccc4)(c4ccccc4)c4ccccc4)cc3)c3ccc(s3)c2-c2ccccc2)C=C1.[Br-]		2.04	14	18.9	Not Active	Active		>70%	inactive	6.05
C1=Cc2nc1c(-c1ccccc1)c1nc(c(-c3ccccc3)c3ccc([nH]3)c(-c3ccccc3)c3ccc([nH]3)c2-c2ccccc2)C=C1									inactive	

Now from value to molecule, other results behind:

Drug uptake (Colon 26 [2]) [fmol]	logD [3]	fold change (FC) (Colon 26 [5])	fold change (FC) (Colon 26 [6])	Drug uptake [7]	Drug uptake (Colon 26 [9])	Drug uptake [10]	SMILES	Activity (Colon 26 [1])	Activity (Colon 26 [4])	pIC50 (Colon 26 [8])
0.19	2.3						Oc1ccc(-c2c3nc(c(-c4ccccc4)c4ccc(s4)c(-c4ccccc4)c4nc(c(-c5ccccc5)c5ccc2s5)C=C4)C=C3)cc1	inactive	inactive	
	1.79	7	8.3	Active	Active		C1=Cc2nc1c(-c1ccccc1)c1ccc(s1)c(-c1ccccc1)c1nc(c(-c3ccc(OCCC[P+](c4ccccc4)(c4ccccc4)c4ccccc4)cc3)c3ccc(s3)c2-c2ccc(OCCC[P+](c3ccccc3)(c3ccccc3)c3ccccc3)cc2)C=C1.[Br-].[Br-]	>70%	inactive	5.78
	2.01	7	10.6	Active	Active	Active	CCN(CC)c1ccc2c(-c3ccccc3C(=O)OCCCOc3ccc(-c4c5nc(c(-c6ccccc6)c6ccc(s6)c(-c6ccccc6)c6nc(c(-c7ccccc7)c7ccc4s7)C=C6)C=C5)cc3)c3ccc(=[N+](CC)CC)cc-3oc2c1.[Cl-]	>70%	inactive	5.63
